Measurements published in ChEMBL document CHEMBL6120958, “A Highly Atom-Efficient Prodrug Approach to Generate Synergy between H2S and Nonsteroidal Anti-inflammatory Drugs and Improve Safety” (J Med Chem, 2024).
Active and inactive are the calls of the source. No cut-off for these calls is given here.

Columns and labels:
[1] = Stability of the compound in PBS at 500 uM measured within 144 hrs at pH 7.4 at 37 degC by HPLC analysis; type: physicochemical; conditions: buffer, pH 7.4, 144 h
[2] = Stability of the compound in PBS at 500 uM measured for 3 months at pH 7.4 at -20 degC by HPLC analysis; type: physicochemical; conditions: buffer, pH 7.4, 2190 h
[3] = Stability of the compound in rat plasma assessed as half life by LC-MS/MS analysis; type: ADME, cell-free
[4] = target: T1, Prostaglandin G/H synthase 1 (Ovis aries, UniProt P05979); assay: Inhibition of ovine COX1 assessed as reduction in PGF2alpha production using arachidonic acid as substrate preincubated with enzyme for 10 mins followed by substrate addition and measured after 2 mins by ELISA
T1 sequence (P05979 whole entry): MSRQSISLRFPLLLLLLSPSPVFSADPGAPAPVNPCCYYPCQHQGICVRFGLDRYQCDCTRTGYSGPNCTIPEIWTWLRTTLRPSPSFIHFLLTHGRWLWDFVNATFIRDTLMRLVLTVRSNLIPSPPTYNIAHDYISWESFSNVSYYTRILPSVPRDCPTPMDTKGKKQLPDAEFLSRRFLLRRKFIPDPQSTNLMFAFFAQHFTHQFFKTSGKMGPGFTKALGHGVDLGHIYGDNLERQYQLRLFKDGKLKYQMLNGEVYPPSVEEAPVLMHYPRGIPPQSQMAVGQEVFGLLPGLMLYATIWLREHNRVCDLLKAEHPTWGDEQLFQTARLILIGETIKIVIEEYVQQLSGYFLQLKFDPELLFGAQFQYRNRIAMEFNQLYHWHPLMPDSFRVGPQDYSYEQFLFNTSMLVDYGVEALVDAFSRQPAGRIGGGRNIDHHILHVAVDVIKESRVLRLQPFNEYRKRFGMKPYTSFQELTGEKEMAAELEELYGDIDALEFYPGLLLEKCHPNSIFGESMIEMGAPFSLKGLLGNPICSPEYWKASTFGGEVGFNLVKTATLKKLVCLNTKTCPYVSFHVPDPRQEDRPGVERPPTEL

[5] = target: T2, Liver carboxylesterase (Sus scrofa, UniProt Q29550); assay: Prodrug release in PBS assessed as porcine liver esterase-mediated hydrolysis by measuring peak H2S concentration at 500 uM measured at pH 7.4 after 90 mins by methylene blue method; type: ADME; conditions: pig, isolated protein, pH 7.4, 1.5 h
T2 sequence (Q29550 whole entry): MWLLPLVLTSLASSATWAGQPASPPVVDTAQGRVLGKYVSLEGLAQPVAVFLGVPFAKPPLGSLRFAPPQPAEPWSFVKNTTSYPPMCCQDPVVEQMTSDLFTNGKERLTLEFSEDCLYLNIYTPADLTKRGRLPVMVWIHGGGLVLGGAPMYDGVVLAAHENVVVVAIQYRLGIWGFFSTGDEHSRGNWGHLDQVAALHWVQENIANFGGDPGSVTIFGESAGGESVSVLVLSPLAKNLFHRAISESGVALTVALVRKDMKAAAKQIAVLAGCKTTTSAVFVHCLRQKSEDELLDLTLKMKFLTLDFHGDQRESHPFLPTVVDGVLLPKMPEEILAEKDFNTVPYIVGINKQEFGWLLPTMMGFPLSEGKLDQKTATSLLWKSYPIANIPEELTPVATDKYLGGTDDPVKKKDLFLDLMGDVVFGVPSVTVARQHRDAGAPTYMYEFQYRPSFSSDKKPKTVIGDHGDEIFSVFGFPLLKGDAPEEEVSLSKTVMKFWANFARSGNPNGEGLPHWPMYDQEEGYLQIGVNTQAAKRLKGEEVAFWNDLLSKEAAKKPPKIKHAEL

[6] = target: T2, Liver carboxylesterase; assay: Prodrug release in PBS assessed as porcine liver esterase-mediated hydrolysis by measuring half-life at 500 uM measured at pH 7.4 by HPLC analysis; type: ADME; conditions: pig, isolated protein, pH 7.4, 500 µM
[7] = target: T2, Liver carboxylesterase; assay: Prodrug release in PBS assessed as porcine liver esterase-mediated hydrolysis by measuring peak H2S concentration at 500 uM measured at pH 7.4 after 40 mins by methylene blue method; type: ADME; conditions: pig, isolated protein, pH 7.4, 40 min
[8] = Toxicity against collagen-induced arthritis Wistar rat model assessed as AST level in serum at 33.7 umol/kg, po administered for 28 days; type: organism-based; conditions: in vivo, 672 h, dose 33.7 µmol/kg, time 28 day
[9] = Oral bioavailability in Wistar rat at 10 mg/kg; type: ADME, organism-based; conditions: in vivo
[10] = test system: Rattus norvegicus; assay: Antiinflammatory activity against collagen-induced arthritis Wistar rat model assessed as reduction in toe swelling at 33.7 umol/kg, po administered for 28 days via gavage; type: functional, organism-based; conditions: dose 33.7 µmol/kg, time 28.0 day
[11] = Toxicity against collagen-induced arthritis Wistar rat model assessed as creatinine level in serum at 33.7 umol/kg, po administered for 28 days; type: organism-based; conditions: in vivo, 672 h, dose 33.7 µmol/kg, time 28 day
[12] = Toxicity against collagen-induced arthritis Wistar rat model assessed as gastric ulcer area at 16.8 umol/kg, po administered for 28 days; type: organism-based; conditions: in vivo, 672 h, at 16.8 µmol/kg, time 28 day
[13] = test system: Rattus norvegicus; assay: Antiinflammatory activity against collagen-induced arthritis Wistar rat model assessed as reduction in IL-1 beta level in serum at 33.7 umol/kg, po administered for 28 days via gavage by ELISA; type: functional, organism-based; conditions: dose 33.7 µmol/kg, time 28.0 day
[14] = Toxicity against C57BL/6J mouse assessed as ALT level in serum at 506 umol/kg, ip measured after 24 hrs; type: organism-based; conditions: in vivo, dose 506 µmol/kg
[15] = test system: Rattus norvegicus; assay: Antiinflammatory activity against collagen-induced arthritis Wistar rat model assessed as increase in IL-10 level in serum at 33.7 umol/kg, po administered for 28 days via gavage by ELISA; type: functional, organism-based; conditions: dose 33.7 µmol/kg, time 28.0 day
[16] = Toxicity against C57BL/6J mouse assessed as AST level in serum at 506 umol/kg, ip measured after 24 hrs; type: organism-based; conditions: in vivo, dose 506 µmol/kg
[17] = Toxicity against collagen-induced arthritis Wistar rat model assessed as glutathione level in liver at 33.7 umol/kg, po administered for 28 days; type: organism-based; conditions: in vivo, 672 h, dose 33.7 µmol/kg, time 28 day
[18] = Toxicity against collagen-induced arthritis Wistar rat model assessed as uric acid level in serum at 33.7 umol/kg, po administered for 28 days; type: organism-based; conditions: in vivo, 672 h, dose 33.7 µmol/kg, time 28 day
[19] = Cardiotoxicity against Sprague-Dawley rat assessed as LDH level in serum at 13.5 mg/kg, ip administered for 6 days (reference value: 831.8 +/-23.1 U/L); type: toxicity, organism-based; conditions: in vivo, 144 h, time 6 day
[20] = Toxicity against collagen-induced arthritis Wistar rat model assessed as gastrointestinal tract damage by measuring ulcer area in stomach at 33.7 umol/kg, po administered for 28 days; type: organism-based; conditions: in vivo, 672 h, at 33.7 µmol/kg, time 28 day
[21] = test system: Rattus norvegicus; assay: Prodrug release in Sprague-Dawley rat assessed as benzoic acid level in blood at 80 umol/kg, iv measured after 1 min by LC-MS/MS analysis; type: ADME, organism-based; conditions: in vivo, dose 80 µmol/kg
[22] = Stability in Sprague-Dawley rat assessed as parent compound level in blood at 80 umol/kg, iv measured after 5 mins by LC-MS/MS analysis; type: ADME, organism-based; conditions: whole blood, dose 80 µmol/kg, read-out: Stability
[23] = test system: Rattus norvegicus; assay: Prodrug release in Sprague-Dawley rat assessed as benzoic acid level in blood at 80 umol/kg, iv measured after 5 mins by LC-MS/MS analysis; type: ADME, organism-based; conditions: in vivo, dose 80 µmol/kg
[24] = target: T2, Liver carboxylesterase; assay: Prodrug release in PBS assessed as porcine liver esterase-mediated hydrolysis at 500 uM measured at pH 7.4 in presence of PMSF by HPLC analysis; type: ADME; conditions: pig, isolated protein, pH 7.4, 500 µM
[25] = Stability in Sprague-Dawley rat assessed as parent compound level in blood at 80 umol/kg, iv measured after 1 min by LC-MS/MS analysis; type: ADME, organism-based; conditions: whole blood, dose 80 µmol/kg, read-out: Stability
[26] = test system: Mus musculus; assay: Prodrug release in C57BL/6J mouse assessed as increase in H2S concentration in blood at 50 umol/kg, iv measured after 15 mins by gas chromatography; type: ADME, organism-based; conditions: in vivo, 0.25 h, dose 50 µmol/kg
[27] = target: T2, Liver carboxylesterase; assay: Prodrug release in PBS assessed as porcine liver esterase-mediated hydrolysis by measuring peak H2S concentration at 500 uM measured at pH 7.4 after 80 mins by methylene blue method; type: ADME; conditions: pig, isolated protein, pH 7.4, 1.333 h
[28] = target: T2, Liver carboxylesterase; assay: Prodrug release in PBS assessed as porcine liver esterase-mediated hydrolysis by measuring H2S concentration at 500 uM measured at pH 7.4 after 5 hrs by methylene blue method; type: ADME; conditions: pig, isolated protein, pH 7.4, 5 h
[29] = test system: Mus musculus; assay: Protection against ischemia/reperfusion injury in middle cerebral artery occlusion C57BL/6J mouse model assessed as decrease in infarct size in brain at 100 umol/kg, iv administered within initial 20 mins of ischemia period followed by reperfusion for 24 hrs after 1 hr and 20 mins of ischemia period and measured at 24 hrs post-reperfusion by TTC staining based analysis; type: functional, organism-based; conditions: dose 100.0 µmol/kg, time 2960.0 min
[30] = test system: Mus musculus; assay: Protection against ischemia/reperfusion injury in middle cerebral artery occlusion C57BL/6J mouse model assessed as decrease in malondialdehyde level in brain at 100 umol/kg, iv administered within initial 20 mins of ischemia period followed by reperfusion for 24 hrs after 1 hr and 20 mins of ischemia period and measured at 24 hrs post-reperfusion; type: functional, organism-based; conditions: dose 100.0 µmol/kg, time 2960.0 min
[31] = target: T3, Prostaglandin G/H synthase 2 (Homo sapiens, UniProt P35354); assay: Inhibition of human recombinant COX2 assessed as reduction in PGF2alpha production using arachidonic acid as substrate preincubated with enzyme for 10 mins followed by substrate addition and measured after 2 mins by ELISA
T3 sequence (P35354 whole entry): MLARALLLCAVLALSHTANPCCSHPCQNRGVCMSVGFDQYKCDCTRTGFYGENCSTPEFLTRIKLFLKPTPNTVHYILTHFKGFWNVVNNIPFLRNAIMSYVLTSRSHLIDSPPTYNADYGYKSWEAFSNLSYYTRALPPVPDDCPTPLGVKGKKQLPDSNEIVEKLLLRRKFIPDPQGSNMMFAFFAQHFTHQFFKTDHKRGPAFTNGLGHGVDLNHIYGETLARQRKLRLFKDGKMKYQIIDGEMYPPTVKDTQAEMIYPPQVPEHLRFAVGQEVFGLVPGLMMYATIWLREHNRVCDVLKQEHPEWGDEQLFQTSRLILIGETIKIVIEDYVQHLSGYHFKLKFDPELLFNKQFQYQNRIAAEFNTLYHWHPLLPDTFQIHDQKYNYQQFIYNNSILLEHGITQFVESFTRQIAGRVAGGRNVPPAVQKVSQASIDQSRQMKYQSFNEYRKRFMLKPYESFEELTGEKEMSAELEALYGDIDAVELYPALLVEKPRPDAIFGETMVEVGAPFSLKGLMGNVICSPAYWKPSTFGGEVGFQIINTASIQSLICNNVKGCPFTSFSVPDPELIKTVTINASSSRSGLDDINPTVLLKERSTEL

Cc1ccc(CC(=O)[S-])cc1.[Na+]
Stability [1]: Stable
Stability [2]: Stable

CC(C(=O)[S-])c1ccc(-c2ccccc2)c(F)c1.[Na+] (configuration not stated)
Stability [1]: Stable
half-life [3]: 4.67 h
IC50 [4]: 0.221 µM
Stability [2]: Stable

COc1ccc2c(c1)c(CC(=O)[S-])c(C)n2C(=O)c1ccc(Cl)cc1.[Na+]
Drug metabolism [5]: 29 µM
Stability [1]: Stable
half-life [3]: 21.3 h
IC50 [4]: 0.0076 µM
t1/2 [6]: 4.45 h
Stability [2]: Stable

COc1ccc(CCC(=O)[S-])cc1.[Na+]
Stability [1]: Stable
Stability [2]: Stable

O=C([S-])CCc1ccc(Cl)cc1.[Na+]
Drug metabolism [7]: 129 µM
Stability [1]: Stable
t1/2 [6]: 0.0967 h
Stability [2]: Stable

COc1ccc2cc([C@H](C)C(=O)[S-])ccc2c1.[Na+]
Stability [1]: Stable
half-life [3]: 6.73 h
IC50 [4]: 1.3 µM
Stability [2]: Stable

O=C([S-])Cc1ccccc1.[Na+]
Stability [1]: Stable
Stability [2]: Stable

O=C([S-])c1ccc2ccccc2c1.[Na+]
Stability [1]: Stable
Stability [2]: Stable

O=C(O)Cc1ccccc1Nc1c(Cl)cccc1Cl [DICLOFENAC]
Activity [8]: 75.3 U/L
bioavailability [9]: 75%
Activity [10]: Active
Activity [11]: 342.6 µmol/L
Activity [12]: 0.09%
Activity [13]: Active
Activity [14]: 76.9 U/L
Activity [15]: Active
Activity [16]: 128.6 U/L
Activity [17]: 0.8 µg/mg
Activity [18]: 165.6 µmol/L
Activity [19]: 2249 U/L
Activity [20]: 0.42%

O=C([S-])c1ccccc1.[Na+]
Drug metabolism [21]: 46.4 µM
concentration at 5 min [22]: 113 µM
Stability [1]: Stable
half-life [3]: 2.17 h
Drug metabolism [23]: 78.3 µM
Drug metabolism [24]: metabolite_notdetected
t1/2 [6]: 2.51 h
Stability [2]: Stable
concentration at 1 min [25]: 439 µM
Drug metabolism [26]: metabolite_detected
Drug metabolism [27]: 70 µM
Drug metabolism [28]: metabolite_detected

OC(=S)c1ccccc1
Activity [29]: Active; Comparable Efficacy To Na2S Observed
Activity [30]: Active

O=C([S-])Cc1ccc2ccccc2c1.[Na+]
Stability [1]: Stable
Stability [2]: Stable

COc1ccc(C(=O)[S-])cc1.[Na+]
Stability [1]: Stable
Stability [2]: Stable

COc1ccc2cc([C@H](C)C(=O)O)ccc2c1 [NAPROXEN]
IC50 [31]: 10.6 µM

O=C([S-])CCc1ccccc1.[Na+]
Stability [1]: Stable
Stability [2]: Stable

Cc1ccc(C(=O)[S-])cc1.[Na+]
Stability [1]: Stable
Stability [2]: Stable
